Assay results reported in the NIST ThermoML archive (doi:10.1021/je400835u).
± gives the expanded uncertainty stated by the source.

Test: xn = mol fraction of the nth substance listed
Details: 100 kPa, Liquid; for viscosity: Falling or rolling sphere viscometry; for mass density: Vibrating tube method

CCCCC1CCCCC1 [butylcyclohexane] + CCCCCCC
Details	mass density, 293.15 K [kg/m3]	mass density, 298.15 K [kg/m3]	mass density, 303.15 K [kg/m3]	mass density, 308.15 K [kg/m3]	mass density, 313.15 K [kg/m3]	viscosity, 293.15 K [mPa·s]	viscosity, 298.15 K [mPa·s]	viscosity, 303.15 K [mPa·s]	viscosity, 308.15 K [mPa·s]	viscosity, 313.15 K [mPa·s]
x1 = 0.0499	691.14 ± 0.17	686.96 ± 0.18	682.7 ± 0.18	678.43 ± 0.18	674.27 ± 0.18	0.445 ± 0.011	0.422 ± 0.01	0.404 ± 0.01	0.38 ± 0.01	0.365 ± 0.01
x1 = 0.0991	698.01 ± 0.17	693.86 ± 0.17	689.65 ± 0.18	685.41 ± 0.18	681.26 ± 0.18	0.477 ± 0.011	0.453 ± 0.011	0.432 ± 0.01	0.408 ± 0.01	0.39 ± 0.01
x1 = 0.2001	711.59 ± 0.17	707.49 ± 0.17	703.36 ± 0.17	699.21 ± 0.17	695.08 ± 0.17	0.537 ± 0.011	0.51 ± 0.011	0.485 ± 0.011	0.463 ± 0.011	0.44 ± 0.011
x1 = 0.2995	724.33 ± 0.17	720.29 ± 0.17	716.21 ± 0.17	712.12 ± 0.17	708.05 ± 0.17	0.597 ± 0.011	0.564 ± 0.011	0.533 ± 0.011	0.508 ± 0.011	0.484 ± 0.011
x1 = 0.4006	736.73 ± 0.16	732.74 ± 0.16	728.7 ± 0.17	724.68 ± 0.17	720.66 ± 0.17	0.665 ± 0.011	0.623 ± 0.011	0.59 ± 0.011	0.56 ± 0.011	0.531 ± 0.011
x1 = 0.4984	748.17 ± 0.16	744.24 ± 0.16	740.26 ± 0.16	736.29 ± 0.16	732.29 ± 0.16	0.741 ± 0.011	0.694 ± 0.011	0.652 ± 0.011	0.617 ± 0.011	0.584 ± 0.011
x1 = 0.6015	759.68 ± 0.16	755.81 ± 0.16	751.86 ± 0.16	747.93 ± 0.16	744 ± 0.16	0.832 ± 0.012	0.776 ± 0.011	0.727 ± 0.011	0.685 ± 0.011	0.646 ± 0.011
x1 = 0.6993	770.09 ± 0.16	766.25 ± 0.16	762.36 ± 0.16	758.5 ± 0.16	754.58 ± 0.16	0.929 ± 0.012	0.865 ± 0.012	0.808 ± 0.012	0.758 ± 0.011	0.713 ± 0.011
x1 = 0.7999	780.33 ± 0.15	776.52 ± 0.15	772.68 ± 0.16	768.84 ± 0.16	764.98 ± 0.16	1.042 ± 0.013	0.966 ± 0.012	0.9 ± 0.012	0.842 ± 0.012	0.789 ± 0.012
x1 = 0.8999	790.07 ± 0.15	786.3 ± 0.15	782.5 ± 0.15	778.7 ± 0.16	774.89 ± 0.16	1.172 ± 0.013	1.083 ± 0.013	1.005 ± 0.012	0.936 ± 0.012	0.875 ± 0.012
x1 = 0.9501	794.82 ± 0.15	791.06 ± 0.15	787.29 ± 0.15	783.51 ± 0.15	779.72 ± 0.16	1.242 ± 0.013	1.146 ± 0.013	1.059 ± 0.013	0.988 ± 0.012	0.922 ± 0.012
x1 = 1	799.44 ± 0.15	795.7 ± 0.15	791.95 ± 0.15	788.19 ± 0.15	784.41 ± 0.15	1.296 ± 0.014	1.196 ± 0.013	1.107 ± 0.013	1.027 ± 0.013	0.958 ± 0.012

CCCCC1CCCCC1 [butylcyclohexane] + CCCCCCCC
Details	mass density, 293.15 K [kg/m3]	mass density, 298.15 K [kg/m3]	mass density, 303.15 K [kg/m3]	mass density, 308.15 K [kg/m3]	mass density, 313.15 K [kg/m3]	viscosity, 293.15 K [mPa·s]	viscosity, 298.15 K [mPa·s]	viscosity, 303.15 K [mPa·s]	viscosity, 308.15 K [mPa·s]	viscosity, 313.15 K [mPa·s]
x1 = 0.0495	708.15 ± 0.17	704.15 ± 0.17	700.12 ± 0.17	696.06 ± 0.17	691.99 ± 0.17	0.569 ± 0.011	0.547 ± 0.011	0.515 ± 0.011	0.49 ± 0.011	0.464 ± 0.011
x1 = 0.1008	713.59 ± 0.17	709.59 ± 0.17	705.57 ± 0.17	701.55 ± 0.17	697.5 ± 0.17	0.596 ± 0.011	0.573 ± 0.011	0.54 ± 0.011	0.512 ± 0.011	0.486 ± 0.011
x1 = 0.198	723.69 ± 0.17	719.73 ± 0.17	715.74 ± 0.17	711.75 ± 0.17	707.72 ± 0.17	0.647 ± 0.011	0.619 ± 0.011	0.582 ± 0.011	0.552 ± 0.011	0.524 ± 0.011
x1 = 0.3011	734.16 ± 0.16	730.24 ± 0.16	726.28 ± 0.16	722.33 ± 0.17	718.33 ± 0.17	0.707 ± 0.011	0.671 ± 0.011	0.63 ± 0.011	0.592 ± 0.011	0.565 ± 0.011
x1 = 0.4008	744.07 ± 0.16	740.18 ± 0.16	736.26 ± 0.16	732.33 ± 0.16	728.38 ± 0.16	0.771 ± 0.011	0.726 ± 0.011	0.68 ± 0.011	0.638 ± 0.011	0.606 ± 0.011
x1 = 0.4982	753.55 ± 0.16	749.7 ± 0.16	745.81 ± 0.16	741.91 ± 0.16	737.98 ± 0.16	0.839 ± 0.012	0.784 ± 0.012	0.735 ± 0.011	0.687 ± 0.011	0.652 ± 0.011
x1 = 0.5985	763.12 ± 0.16	759.29 ± 0.16	755.43 ± 0.16	751.56 ± 0.16	747.67 ± 0.16	0.918 ± 0.012	0.854 ± 0.012	0.799 ± 0.012	0.747 ± 0.011	0.705 ± 0.011
x1 = 0.6997	772.58 ± 0.15	768.77 ± 0.16	764.94 ± 0.16	761.1 ± 0.16	757.24 ± 0.16	1.004 ± 0.012	0.931 ± 0.012	0.87 ± 0.012	0.814 ± 0.012	0.765 ± 0.011
x1 = 0.7997	781.72 ± 0.15	777.93 ± 0.15	774.13 ± 0.16	770.31 ± 0.16	766.48 ± 0.16	1.097 ± 0.013	1.014 ± 0.012	0.945 ± 0.012	0.886 ± 0.012	0.83 ± 0.012
x1 = 0.9001	790.72 ± 0.15	786.95 ± 0.15	783.18 ± 0.15	779.39 ± 0.15	775.59 ± 0.16	1.2 ± 0.013	1.108 ± 0.013	1.029 ± 0.013	0.962 ± 0.012	0.898 ± 0.012
x1 = 0.951	795.17 ± 0.15	791.42 ± 0.15	787.66 ± 0.15	783.88 ± 0.15	780.1 ± 0.15	1.25 ± 0.014	1.156 ± 0.013	1.07 ± 0.013	0.996 ± 0.012	0.93 ± 0.012
x1 = 1	799.44 ± 0.15	795.7 ± 0.15	791.95 ± 0.15	788.19 ± 0.15	784.41 ± 0.15	1.296 ± 0.014	1.196 ± 0.013	1.107 ± 0.013	1.027 ± 0.013	0.958 ± 0.012

CCCCC1CCCCC1 [butylcyclohexane] + CCCCCCCCC
Details	mass density, 293.15 K [kg/m3]	mass density, 298.15 K [kg/m3]	mass density, 303.15 K [kg/m3]	mass density, 308.15 K [kg/m3]	mass density, 313.15 K [kg/m3]	viscosity, 293.15 K [mPa·s]	viscosity, 298.15 K [mPa·s]	viscosity, 303.15 K [mPa·s]	viscosity, 308.15 K [mPa·s]	viscosity, 313.15 K [mPa·s]
x1 = 0.0496	721.95 ± 0.16	718.07 ± 0.17	714.19 ± 0.17	710.29 ± 0.17	706.36 ± 0.17	0.745 ± 0.011	0.698 ± 0.011	0.659 ± 0.011	0.621 ± 0.011	0.588 ± 0.011
x1 = 0.1008	726.12 ± 0.16	722.26 ± 0.16	718.38 ± 0.17	714.48 ± 0.17	710.57 ± 0.17	0.764 ± 0.011	0.718 ± 0.011	0.677 ± 0.011	0.638 ± 0.011	0.603 ± 0.011
x1 = 0.2011	734.29 ± 0.16	730.45 ± 0.16	726.59 ± 0.16	722.71 ± 0.16	718.81 ± 0.17	0.807 ± 0.012	0.754 ± 0.011	0.712 ± 0.011	0.668 ± 0.011	0.63 ± 0.011
x1 = 0.3005	742.39 ± 0.16	738.56 ± 0.16	734.71 ± 0.16	730.85 ± 0.16	726.97 ± 0.16	0.852 ± 0.012	0.794 ± 0.012	0.745 ± 0.011	0.698 ± 0.011	0.659 ± 0.011
x1 = 0.3997	750.46 ± 0.16	746.65 ± 0.16	742.81 ± 0.16	738.96 ± 0.16	735.1 ± 0.16	0.901 ± 0.012	0.836 ± 0.012	0.783 ± 0.012	0.733 ± 0.011	0.692 ± 0.011
x1 = 0.4999	758.62 ± 0.16	754.82 ± 0.16	751 ± 0.16	747.17 ± 0.16	743.32 ± 0.16	0.956 ± 0.012	0.885 ± 0.012	0.827 ± 0.012	0.774 ± 0.011	0.729 ± 0.011
x1 = 0.5987	766.67 ± 0.16	762.89 ± 0.16	759.08 ± 0.16	755.26 ± 0.16	751.43 ± 0.16	1.015 ± 0.012	0.94 ± 0.012	0.876 ± 0.012	0.82 ± 0.012	0.77 ± 0.011
x1 = 0.7011	775.04 ± 0.15	771.26 ± 0.15	767.46 ± 0.16	763.66 ± 0.16	759.85 ± 0.16	1.081 ± 0.013	1.002 ± 0.012	0.934 ± 0.012	0.873 ± 0.012	0.817 ± 0.012
x1 = 0.8001	783.13 ± 0.15	779.35 ± 0.15	775.57 ± 0.15	771.78 ± 0.16	767.98 ± 0.16	1.152 ± 0.013	1.068 ± 0.013	0.996 ± 0.012	0.927 ± 0.012	0.866 ± 0.012
x1 = 0.8996	791.25 ± 0.15	787.5 ± 0.15	783.73 ± 0.15	779.96 ± 0.15	776.17 ± 0.16	1.223 ± 0.013	1.135 ± 0.013	1.052 ± 0.013	0.98 ± 0.012	0.915 ± 0.012
x1 = 0.9504	795.39 ± 0.15	791.64 ± 0.15	787.88 ± 0.15	784.11 ± 0.15	780.33 ± 0.15	1.262 ± 0.014	1.166 ± 0.013	1.08 ± 0.013	1.005 ± 0.012	0.938 ± 0.012
x1 = 1	799.44 ± 0.15	795.7 ± 0.15	791.95 ± 0.15	788.19 ± 0.15	784.41 ± 0.15	1.296 ± 0.014	1.196 ± 0.013	1.107 ± 0.013	1.027 ± 0.013	0.958 ± 0.012
